Results as given in US4732989A, “Substituted alkyl imidazole derivatives” (G. D. Searle & Co., priority 1986, dated 1988).
In brackets after ≈: the same amount, converted by molar mass. Where a name gives a salt, the structure may show the parent alone.

How the values were obtained:
[1] = tested on: B. Fragilis WS-1; experiment: MIC/MBC anti-anaerobic screen, strain E; format: cell-based; details: Bacteroides fragilis, 48 h; for MIC: 37° C., anaerobic, read-out: Minimum Inhibitory Concentration (MIC)
Experimental: (§1) The screening panel utilized in this Example consisted of 5 strains of Bacteroides fragilis. All assays were carried out in 96 well microtitre plates. If an isolate was obtained from either a culture collection or clinical source, the isolate was immediately inoculated into Wilkins-Chalgren broth (Oxoid) and incubated at 37° C. in an anaerobic chamber in an atmosphere of 85% nitrogen, 10% carbon dioxide, and 5% hydrogen for 48 hours. At the end of this time, the viable count was about 10^12 organisms/ml broth. A 1 ml aliquot of each culture was placed in an ampoule and quick frozen in an acetone-dry-ice mixture and stored in liquid nitrogen. When an inoculum was utilized in an assay, one of the ampoules was thawed and diluted with fresh broth to yield a suspension having a count of 5×10^5 organisms/ml. 100 ul of the suspension was inoculated into each well of the microtitre plate. 2 mg of the test compound was dissolved on 0.2 ml of a suitable solvent such as dimethylsulphoxide, polyethylene glycol 200 or methanol. […] After addition of the test solution, the final inoculum level is 10^5 cells/ml. The plates were incubated for 48 hours at 37° C. in the anaerobic chamber. The Minimum Inhibitory Concentration (MIC) was read visually. The MIC is defined as the lowest concentration at which there is no detectable growth. The Minimum Bactericidal Concentration (MBC) was determined by taking a 50 ul aliquot from each well and placing it in fresh medium.

[2] = tested on: B. Fragilis ATCC 11295; experiment: MIC/MBC anti-anaerobic screen, strain D; format: cell-based; details: Bacteroides fragilis, ATCC11295, 48 h, 37° C., read-out: Minimum Inhibitory Concentration (MIC)
Experimental: as §1

[3] = tested on: B. Fragilis NCTC 9344; experiment: MIC/MBC anti-anaerobic screen, strain C; format: cell-based; details: Bacteroides fragilis, NCTC9344, 48 h, 37° C., read-out: Minimum Inhibitory Concentration (MIC)
Experimental: as §1

[4] = tested on: B. Fragilis NCTC 10581; experiment: MIC/MBC anti-anaerobic screen, strain A; format: cell-based, Bacteroides fragilis; details: 37° C.; for MIC: Bacteroides fragilis, NCTC10581, 48 h, read-out: Minimum Inhibitory Concentration (MIC)
Experimental: as §1

[5] = tested on: B. Fragilis NCTC 9343; experiment: MIC/MBC anti-anaerobic screen, strain B; format: cell-based; details: Bacteroides fragilis, NCTC9343, 48 h, 37° C., read-out: Minimum Inhibitory Concentration (MIC)
Experimental: as §1

| SMILES | MIC [1] [µg/mL] | MIC [2] [µg/mL] | MIC [3] [µg/mL] | MIC [4] [µg/mL] | also measured |
| --- | --- | --- | --- | --- | --- |
| Cc1nccn1CC(C1=NCCN1c1ccc(Cl)cc1Cl)c1ccccc1 (centres unmarked) [Example 21, 1-(2,4-Dichlorophenyl)-4,5-dihydro-2-[2-(2-methylimidazol-1-yl)-1-phenylethyl]imidazole dihydrochloride] | 0.8 | 3.1 | 0.8 | – | – |
| CCCCCCCCCCN1CCN=C1C(Cn1ccnc1)c1ccccc1.Cl.Cl (centres unmarked) [Example 26, 1-n-Decyl-4,5-dihydro-2-[2-(imidazol-1-yl)-1-phenylethyl]imidazole dihydrochloride] | 3.1 | 3.1 | 3.1 | – | – |
| Clc1ccc(N2CCN=C2C(Cn2ccnc2)c2ccccc2)c(Cl)c1 (centres unmarked) [Example 3, 1-(2,4-Dichlorophenyl)-4,5-dihydro-2-[2-(imidazol-1-yl)-1-phenylethyl]imidazole hydrochloride] | – | 0.8 | 0.8 | 0.8 | MBC ([1]; 99.9% reduction in viable count, read-out: Minimum Bactericidal Concentration (MBC)): 3.1 µg/mL |
| CC1=NCCN1CC(C1=NCCN1c1ccc(Cl)cc1Cl)c1ccccc1 (centres unmarked) [Example 23, 1-(2,4-Dichlorophenyl)-4,5-dihydro-2-[2-(4,5-dihydro-2-methylimidazol-1-yl)-1-phenylethyl]imidazole dihydrochloride] | 0.8 | – | – | – | – |
| Cc1ncc([N+](=O)[O-])n1CCO [Metronidazole, reference compound] | – | – | – | – | Minimum Inhibitory Concentration (MIC) ([4]; 48 hours): 0.8 µg/mL |
| CSc1nccn1CC(C1=NCCN1c1ccc(Cl)cc1Cl)c1ccccc1 (centres unmarked) [Example 22, 1-(2,4-Dichlorophenyl)-4,5-dihydro-2-[1-phenyl-2-(2-thiomethylimidazol-1-yl)ethyl]imidazole dihydrochloride] | 3.1 | 3.1 | 3.1 | – | – |
| Clc1ccccc1N1CCN=C1C(Cn1ccnc1)c1ccccc1 (centres unmarked) [Example 1, 1-(2-Chlorophenyl)-4,5-dihydro-2[2-(imidazol-1-yl)-1-phenylethyl)imidazole] | – | – | – | 3.1 (≈ 8.84 µM) | – |
| Clc1ccc(CN2CCN=C2C(Cn2cccn2)c2ccccc2)c(Cl)c1 (centres unmarked) [Example 16, 1-(2,4-Dichlorophenylmethyl)-4,5-dihydro-2-[1-phenyl-2-(pyrazol-1-yl)ethyl]imidazole dihydrochloride] | – | – | 3.1 | 2.5 | – |
| Clc1ccc(CN2CCN=C2C(Cn2ccnc2)c2ccccc2)c(Cl)c1 (centres unmarked) [Example 15, 1-(2,4-Dichlorophenylmethyl)-4,5-dihydro-2-[2-(imidazol-1-yl)-1-phenylethyl]imidazole] | – | 3.1 (≈ 7.76 µM) | 3.1 (≈ 7.76 µM) | 3.1 (≈ 7.76 µM) | MIC [5]: 3.1 µg/mL (≈ 7.76 µM) |
| CCCCCCCCN1CCN=C1C(Cn1ccnc1)c1ccccc1 (centres unmarked) [Example 19, 4,5-Dihydro-2-[2-(imidazol-1-yl)-1-phenylethyl]-1-n-octylimidazole dihydrochloride] | – | – | – | – | MIC [5]: 3.1 µg/mL |
| Brc1ccc(N2CCN=C2C(Cn2ccnc2)c2ccccc2)c(Br)c1 (centres unmarked) [Example 2, 1-(2,4-Dibromophenyl)-4,5-dihydro-2-[2-(imidazol-1-yl)-1-phenylethyl]imidazole dihydrochloride] | 0.8 | – | – | 0.8 | MIC [5]: 3.1 µg/mL |
